For one assay, the system named is E. coli ATCC 25922. Nature of the assay: Photoinactivation (biocidal activity) of E. coli cell suspension after red light irradiation. The assay is classed as cell-based. Conditions: for concentration able to sterilize completely the cell suspension: in combination with EDTA 0.5 mM, 100 mW/cm2 red light (FIG. 2, FIG. 5). On the procedure: These microorganisms were used in the experiments in a stationary phase of growth.
(§1) The experimental protocol was the following:
(§2) The cell suspensions were diluted in an appropriate medium. Addition of an aliquot of stock solution of the composition to be tested to the cell suspension up to the intended final concentrations. Incubation in dark at 37° C. for 5 minutes. Irradiation (650≦λ≦850 nm; 50÷100 mW/cm2; 1÷10 minutes) of cell suspension for each dilution of the photosensitising composition.

In assay [1] the test system is Pseudomonas aeruginosa PAO-1. Nature of the assay: Photoinactivation (biocidal activity) of Pseudomonas aeruginosa cell suspension after red light irradiation. Type of assay: cell-based. The protocol:
The usefulness of the pharmaceutical compositions of the present invention has been evaluated through their activity against the Gram negative micro-organisms Pseudomonas aeruginosa PAO-1 and E. coli ATCC 25922. These microorganisms were used in the experiments in a stationary phase of growth.
as §1, §2

Some results are limits rather than exact numbers.

As to “{2,3,9,10,16,17,23,24-octa[3-(N,N,N-trimethylammonium)phenoxy]zinc(II) phthalocyanine}octaiodide [compound 1]”, the “reduction of the initial population” value in the assay on E. coli ATCC 25922 (compound alone, no chelating agent, 5 min incubation, irradiation 100 mW/cm2 red light (FIG. 1)) is given as 4 log. Also, the “complete sterilization of the cell suspension” value with E. coli ATCC 25922 (compound alone, no chelating agent, irradiation 100 mW/cm2 red light (FIG. 1)) is “cannot be obtained”. Also, the “concentration able to sterilize completely the cell suspension” value in the assay on E. coli ATCC 25922 (5 min incubation) came out at 1 µM. In assay [1] (compound alone, no chelating agent, 100 mW/cm2 red light (FIG. 3)), the “concentration up to which not active (photoinactivation)” value is more than 40 µM. The “reduction of the population” value in assay [1] (with EDTA 0.5 mM, 1 μM concentration, 100 mW/cm2 red light (FIG. 3a)) is reported as 5 log. Further, the “concentration able to sterilize the cell suspension” value in assay [1] (with EDTA 0.5 mM, 100 mW/cm2 red light (FIG. 3a)) is 5 µM.
With “{2(3),9(10),16(17),23(24)-tetra[1,3-bis-(trimethylammonium)propyl-2-oxy]zinc(II) phthalocyanine}octaiodide [compound 2]”, the “concentration able to sterilize completely the cell suspension” value in the assay on E. coli ATCC 25922 (5 min incubation) was found to be 1 µM. In the assay with E. coli ATCC 25922 (without EDTA, 5 min incubation, 100 mW/cm2 red light (FIG. 5a)), the “photosensitizer concentration necessary to sterilize the cell suspension” value turned out to be 20 µM.
